Legend:
[1] = system: pressor effects of angiotensin I; assay: oral effectiveness: blood pressure response to angiotensin I in anesthetized rats; format: in vivo, rat
Protocol: Rats (210-290 g body weight) were fasted overnight and then anesthetized with intraperitoneal pentobarbital, 50-60 mg/kg. Tracheostomy was performed and the animals were ventilated mechanically. A cannula was inserted into a femoral vein for injection of angiotensin I or II, and a second cannula was inserted into a common carotid artery for direct measurement of arterial blood pressure. Heparin, 1,000 units, was injected via the femoral vein to prevent coagulation. Blood pressure was measured with a pressure transducer connected to a polygraph. The rats were injected with 80 ng of angiotensin I or angiotensin II in 20 μl of 0.9 g % NaCl; an amount of antiotensin I or II sufficient to raise mean arterial blood pressure by 27-40 mm Hg. After the responsiveness of a given rat to angiotensins I and II was established, compound (I), at 2 or 5 mg/kg (drug dissolved in 0.5 ml of H2 O plus 10 μl of 1N NaHCO3), was given via a stomach tube. At timed intervals, the effects of 80 ng of angiotensin I or angiotensin II on mean arterial blood pressure were tested.
Rats were prepared as described in Example 222. Compound (II) [N-benzoyl-L-phenylalanylthiopropanoyl)-L-proline] was given orally, via a stomach tube, at a dose of 12 mg/kg or 20 mg/kg. Compound (II) was dissolved in 0.5 ml of H2 O plus 10 μl of 1N NaHCO3. In all other respects, the experimental preparations were exactly as described in Example 222.
Rats (210-290 g body weight) were fasted overnight and then anesthetized with intraperitoneal pentobarbital, 50-60 mg/kg. Tracheostomy was performed and the animals were ventilated mechanically. A cannula was inserted into a femoral vein for injection of angiotensin I or II, and a second cannula was inserted into a common carotid artery for direct measurement of arterial blood pressure. Heparin, 1,000 units, was injected via the femoral vein to prevent coagulation. Blood pressure was measured with a pressure transducer connected to a polygraph. The rats were injected with 160 ng of angiotensin I or 80 ng of angiotensin II in 20 μl of 0.9 g % NaCl; an amount of angiotensin I or II sufficient to raise mean arterial blood pressure by 27-40 mm Hg. After the responsiveness of a given rat to angiotensins I and II was established, compound (B) at 10 mg (drug dissolved in 0.5 ml of H2 O plus 10 μl of 1N NaHCO3), was given via a stomach tube. At timed intervals, the effects of 160 ng of angiotensin I or 80 ng of angiotensin II on mean arterial blood pressure were tested. Results are shown below:
Rats (210-290 g body weight) were fasted overnight and then anesthetized with intraperitoneal pentobarbital, 50-60 mg/kg. Tracheostomy was performed and the animals were ventilated mechanically. A cannula was inserted into a femoral vein for injection of angiotensin I, and a second cannula was inserted into a common carotid artery for direct measurement of arterial blood pressure. Heparin, 1,000 units, was injected via the femoral vein to prevent coagulation. Blood pressure was measured with a pressure transducer connected to a polygraph. The rats were injected with 400 ng/kg of angiotensin I in 20 μl of 0.9 g % NaCl; an amount of angiotensin I sufficient to raise mean arterial blood pressure by 39 mm Hg. After the responsiveness of a given rat to angiotensin I was established, the named compound at 17 μmol/kg (drug dissolved in 0.15 ml of H2 O plus 10 μl of 1N NaHCO3), was given via a stomach tube. At timed intervals, the effects of 400 ng/kg of angiotensin I on mean arterial blood pressure were tested. Results are shown below:
Rats (190-290 g body weight) were fasted overnight and then anesthetized with intraperitoneal pentobarbital, 50-60 mg/kg. Tracheostomy was performed and the animals were ventilated mechanically. A cannula was inserted into a femoral vein for injection of angtiotensin I, and a second cannula was inserted into a common carotid artery for direct measurement of arterial blood pressure. […]

[2] = system: pressor effects of angiotensin I; assay: intravenous effectiveness: blood pressure response to angiotensin I in anesthetized rats; format: in vivo, rat; conditions: for Blood Pressure Response to 400 ng/kg of Angiotensin I: i.v. 1 μmole/kg, Ex. 245; for t1/2: recovery of one half of lost responsiveness to angiotensin I 400 ng/kg
Protocol: Anesthetized rats were prepared as described in Example 228. After the responsiveness of a given rat to angiotensin I was established, the named compound at 2 μmol/kg, in a volume of 15 μl of 0.01N sodium bicarbonate, was injected via a femoral vein. At timed intervals, the effects of angiotensin I, 400 ng/kg, on mean arterial blood pressure were tested. Results are shown below:
Anesthetized rats were prepared as described in Example 231. After the responsiveness of a given rat to angiotensin I was established, the named compound, at 2 μmol/kg, in a volume of 15 μl of 0.01N sodium bicarbonate, was injected via a femoral vein. At timed intervals, the effects of angiotensin I, 400 ng/kg, on mean arterial blood pressure were tested. Results are shown below:
Anesthetized rats were prepared as described in Example 239. The animals were administered the named compound via a femoral vein in 15 μl of 0.01N sodium bicarbonate, after the control response to 400 ng/kg of angiotensin I was measured. […] The time required for recovery of one half of the lost responsiveness to angiotensin I, following injection of the named compound, was designated t1/2. […] Results are shown for two dose levels:
Anesthetized rats were prepared as described in Example 242. The named compound was administered intravenously via a femoral vein, at the stated dose, in 15 μl of 0.01N sodium bicarbonate. The response to intravenous administration was a rapid decrease in responsiveness to Angtiotensin I, 400 ng/kg, followed by a gradual recovery to the pretreatment level of responsiveness. The time required for recovery of one half the lost responsiveness to angiotensin I, following injection of the named compound, is designated t1/2. […] Results are shown for the three dose levels:
The intravenous effectiveness of the named compound was examined by following the procedure described in Example 244 except that 1 μmole/kg of the drug was given intravenously. The results are shown below:
The intravenous effectiveness of the named compound was examined by following the procedure described in Example 246 except that 1 μmole/Kg of the drug was given intravenously.

C[C@H](CSC(=O)[C@@H](N)CCC(=O)O)C(=O)N1CCC[C@H]1C(=O)O [N-alpha-[3-(L-alpha-glutamylthio)-2-D-methyl-propanoyl]-L-proline]
Blood Pressure Response to 400 ng/kg of Angiotensin I ([1]; oral 10 μmol/kg, 9 min, Ex. 244): 66 % of Control
Blood Pressure Response to 400 ng/kg of Angiotensin I ([1]; oral 10 μmol/kg, 18 min, Ex. 244): 39 % of Control
Blood Pressure Response to 400 ng/kg of Angiotensin I ([1]; oral 10 μmol/kg, 26 min, Ex. 244): 39 % of Control
Blood Pressure Response to 400 ng/kg of Angiotensin I ([1]; oral 10 μmol/kg, 33 min, Ex. 244): 26 % of Control
Blood Pressure Response to 400 ng/kg of Angiotensin I ([1]; oral 10 μmol/kg, 39 min, Ex. 244): 18 % of Control
Blood Pressure Response to 400 ng/kg of Angiotensin I ([1]; oral 10 μmol/kg, 45 min, Ex. 244): 18 % of Control
Blood Pressure Response to 400 ng/kg of Angiotensin I ([1]; oral 10 μmol/kg, 53 min, Ex. 244): 13 % of Control
Blood Pressure Response to 400 ng/kg of Angiotensin I ([1]; oral 10 μmol/kg, 64 min, Ex. 244): 13 % of Control
Blood Pressure Response to 400 ng/kg of Angiotensin I ([1]; oral 10 μmol/kg, 77 min, Ex. 244): 26 % of Control
Blood Pressure Response to 400 ng/kg of Angiotensin I ([1]; oral 10 μmol/kg, 89 min, Ex. 244): 26 % of Control
Blood Pressure Response to 400 ng/kg of Angiotensin I ([1]; oral 10 μmol/kg, 111 min, Ex. 244): 24 % of Control
Blood Pressure Response to 400 ng/kg of Angiotensin I ([1]; oral 10 μmol/kg, 125 min, Ex. 244): 26 % of Control
Blood Pressure Response to 400 ng/kg of Angiotensin I ([2]; 0.5 min): 13 % of Control
Blood Pressure Response to 400 ng/kg of Angiotensin I ([2]; 3 min): 13 % of Control
Blood Pressure Response to 400 ng/kg of Angiotensin I ([2]; 7 min): 13 % of Control
Blood Pressure Response to 400 ng/kg of Angiotensin I ([2]; 11 min): 21 % of Control
Blood Pressure Response to 400 ng/kg of Angiotensin I ([2]; 22 min): 21 % of Control
Blood Pressure Response to 400 ng/kg of Angiotensin I ([2]; 28 min): 18 % of Control
Blood Pressure Response to 400 ng/kg of Angiotensin I ([2]; 37 min): 29 % of Control
Blood Pressure Response to 400 ng/kg of Angiotensin I ([2]; 47 min): 37 % of Control
Blood Pressure Response to 400 ng/kg of Angiotensin I ([2]; 56 min): 39 % of Control
Blood Pressure Response to 400 ng/kg of Angiotensin I ([2]; 82 min): 53 % of Control
Blood Pressure Response to 400 ng/kg of Angiotensin I ([2]; 92 min): 71 % of Control

C[C@H](CSC(=O)[C@H](Cc1c[nH]c2ccccc12)NC(=O)c1ccccc1)C(=O)N1CCC[C@H]1C(=O)O [N-alpha-[3-(N-alpha-benzoyl-L-tryptophylthio)-2-D-methylpropanoyl]-1-proline]
Blood Pressure Response to 400 ng/kg of Angiotensin I ([1]; oral 20 μmol/kg, 3 min, Ex. 242): 92 % of Control
Blood Pressure Response to 400 ng/kg of Angiotensin I ([1]; oral 20 μmol/kg, 7 min, Ex. 242): 64 % of Control
Blood Pressure Response to 400 ng/kg of Angiotensin I ([1]; oral 20 μmol/kg, 21 min, Ex. 242): 32 % of Control
Blood Pressure Response to 400 ng/kg of Angiotensin I ([1]; oral 20 μmol/kg, 26 min, Ex. 242): 40 % of Control
Blood Pressure Response to 400 ng/kg of Angiotensin I ([1]; oral 20 μmol/kg, 32 min, Ex. 242): 40 % of Control
Blood Pressure Response to 400 ng/kg of Angiotensin I ([1]; oral 20 μmol/kg, 38 min, Ex. 242): 20 % of Control
Blood Pressure Response to 400 ng/kg of Angiotensin I ([1]; oral 20 μmol/kg, 50 min, Ex. 242): 8 % of Control
Blood Pressure Response to 400 ng/kg of Angiotensin I ([1]; oral 20 μmol/kg, 56 min, Ex. 242): 8 % of Control
Blood Pressure Response to 400 ng/kg of Angiotensin I ([1]; oral 20 μmol/kg, 70 min, Ex. 242): 8 % of Control
Blood Pressure Response to 400 ng/kg of Angiotensin I ([1]; oral 20 μmol/kg, 79 min, Ex. 242): 20 % of Control
Blood Pressure Response to 400 ng/kg of Angiotensin I ([1]; oral 20 μmol/kg, 87 min, Ex. 242): 12 % of Control
Blood Pressure Response to 400 ng/kg of Angiotensin I ([1]; oral 20 μmol/kg, 104 min, Ex. 242): 12 % of Control
Blood Pressure Response to 400 ng/kg of Angiotensin I ([1]; oral 20 μmol/kg, 114 min, Ex. 242): 20 % of Control
Blood Pressure Response to 400 ng/kg of Angiotensin I ([1]; oral 20 μmol/kg, 124 min, Ex. 242): 40 % of Control
Blood Pressure Response to 400 ng/kg of Angiotensin I ([1]; oral 20 μmol/kg, 136 min, Ex. 242): 40 % of Control
Blood Pressure Response to 400 ng/kg of Angiotensin I ([1]; oral 20 μmol/kg, 148 min, Ex. 242): 36 % of Control
Blood Pressure Response to 400 ng/kg of Angiotensin I ([1]; oral 20 μmol/kg, 173 min, Ex. 242): 48 % of Control
Blood Pressure Response to 400 ng/kg of Angiotensin I ([1]; oral 20 μmol/kg, 186 min, Ex. 242): 48 % of Control
Blood Pressure Response to 400 ng/kg of Angiotensin I ([1]; oral 20 μmol/kg, 199 min, Ex. 242): 68 % of Control
Blood Pressure Response to 400 ng/kg of Angiotensin I ([1]; oral 20 μmol/kg, 212 min, Ex. 242): 64 % of Control
Blood Pressure Response to 400 ng/kg of Angiotensin I ([1]; oral 20 μmol/kg, 226 min, Ex. 242): 64 % of Control
Blood Pressure Response to 400 ng/kg of Angiotensin I ([1]; oral 20 μmol/kg, 242 min, Ex. 242): 80 % of Control
Blood Pressure Response to 400 ng/kg of Angiotensin I ([1]; oral 20 μmol/kg, 260 min, Ex. 242): 80 % of Control
Blood Pressure Response to 400 ng/kg of Angiotensin I ([1]; oral 20 μmol/kg, 291 min, Ex. 242): 84 % of Control
t1/2 ([2]; i.v. 0.193 μmol/kg): 11 min
t1/2 ([2]; i.v. 0.58 μmol/kg): 11 min
t1/2 ([2]; i.v. 1.93 μmol/kg): 15 min

Source: US4745124A, “Orally effective anti-hypertensive agents” (priority 1983, dated 1988)
